Values of other authors in patent publication EP0859828B2, “DELIVERY SYSTEMS” (THE PROCTER & GAMBLE COMPANY, priority 1995, dated 1997).

Conditions: 25°C; cobalt pentaamine catalysts complexed with the named ligand

Row | Molecule | base hydrolysis rates (kOH)
1 | CC(=O)O [acetate] | 0.00096 M⁻¹ s⁻¹
2 | oxalate | 0.00025 M⁻¹ s⁻¹
